Measured values taken from ChEMBL document CHEMBL1201862, “PubChem BioAssay data set” (2004).
Activity calls are given as the source filed them.

How the values were obtained:
[1] = target: T1, Insulin-degrading enzyme (Homo sapiens, UniProt P14735); assay: recombinant IDE activation, cell-free – biochemical, fluorescence polarization, counter-screen for IDE activator project, dose response (AID 588681)
[2] = target: T1, Insulin-degrading enzyme; assay: cellular IDE activation of Abeta substrate cleavage – fluorescence polarization, HEK cells, dose response (AID 588439); type: functional, cell-based
[3] = system: HEK293; assay: membrane integrity loss in HEK cells – cell-based, fluorescence, cytotoxicity control for IDE activator project, dose response (AID 588440); type: functional; conditions: Homo sapiens;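 also: cytotoxicity by LDH release measuring loss of membrane integrity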
[4] = system: HEK293; assay: optical interference in Abeta FP readout, dose response, artefact control for IDE activator project, biochemical, fluorescence polarization (AID 588442); type: functional, cell-based; conditions: Homo sapiens
[5] = system: Vero; assay: cells; type: functional; conditions: Chlorocebus sabaeus
[6] = target: Protein disulfide-isomerase (Homo sapiens, UniProt P07237); assay: inhibition of PDI-driven insulin aggregation – biochemical, turbidity, absorbance, cherry-picked samples, dose response (AID 602350); type: functional
[7] = system: HEK293; assay: cells; conditions: Homo sapiens
[8] = system: HEK293; assay: cells; conditions: Homo sapiens; remark: listed apart in the source
[9] = target: Protein kinase C theta type (Homo sapiens, UniProt Q04759); assay: Navigating the Kinome. Panel member name: PRKCQ; type: functional
Chain of Protein kinase C theta type (Q04759 whole entry): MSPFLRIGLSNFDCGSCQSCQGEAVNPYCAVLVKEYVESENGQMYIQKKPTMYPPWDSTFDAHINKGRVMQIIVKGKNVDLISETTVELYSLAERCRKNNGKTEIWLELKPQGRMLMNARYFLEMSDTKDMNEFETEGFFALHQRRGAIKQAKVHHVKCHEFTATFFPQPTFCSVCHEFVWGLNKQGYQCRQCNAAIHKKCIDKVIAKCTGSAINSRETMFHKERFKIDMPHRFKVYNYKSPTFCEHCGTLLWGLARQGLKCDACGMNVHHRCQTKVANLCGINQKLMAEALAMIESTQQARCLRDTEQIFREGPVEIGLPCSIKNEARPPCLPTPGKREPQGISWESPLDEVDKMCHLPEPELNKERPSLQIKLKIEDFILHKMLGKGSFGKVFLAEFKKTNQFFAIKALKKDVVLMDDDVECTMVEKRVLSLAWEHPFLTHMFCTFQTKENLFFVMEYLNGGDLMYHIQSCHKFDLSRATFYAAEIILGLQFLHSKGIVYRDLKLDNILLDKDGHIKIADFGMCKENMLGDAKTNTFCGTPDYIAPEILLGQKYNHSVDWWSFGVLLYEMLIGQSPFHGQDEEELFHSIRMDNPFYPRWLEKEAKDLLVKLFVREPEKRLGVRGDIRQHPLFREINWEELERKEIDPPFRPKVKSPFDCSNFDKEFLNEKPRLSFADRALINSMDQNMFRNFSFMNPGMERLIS

[10] = target: Dual specificity protein kinase CLK2 (Homo sapiens, UniProt P49760); type: functional
[11] = target: Dual specificity mitogen-activated protein kinase kinase 1 (Homo sapiens, UniProt Q02750); assay: Navigating the Kinome. Panel member name: MAP2K1; type: functional
[12] = target: Tyrosine-protein kinase JAK2 (Homo sapiens, UniProt O60674); type: functional;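 also: JAK2 tested as one member of a kinase panel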
[13] = target: Serine/threonine-protein kinase TBK1 (Homo sapiens, UniProt Q9UHD2); assay: Navigating the Kinome. Panel member name: TBK1; type: functional
[14] = target: 5'-AMP-activated protein kinase catalytic subunit alpha-1 (Homo sapiens, UniProt Q13131); type: functional
[15] = target: ALK tyrosine kinase receptor (Homo sapiens, UniProt Q9UM73); type: functional;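 also: ALK tested as one member of a kinase panel screen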
[16] = target: Proto-oncogene tyrosine-protein kinase receptor Ret (Homo sapiens, UniProt P07949); type: functional;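 also: measured within a kinome-wide profiling panel, RET as the panel member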
[17] = target: Tyrosine-protein kinase receptor TYRO3 (Homo sapiens, UniProt Q06418); type: functional;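 also: TYRO3 value obtained as one member of a kinome-wide profiling panel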
[18] = target: Serine/threonine-protein kinase D3 (Homo sapiens, UniProt O94806); type: functional;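 also: determined within a kinase panel screen, with PRKCN as the panel member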
[19] = target: Tyrosine-protein kinase Lck (Homo sapiens, UniProt P06239); type: functional;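 also: lck was assayed as one member of a kinase panel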
[20] = target: Death-associated protein kinase 3 (Homo sapiens, UniProt O43293); type: functional;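 also: measured as one member of a kinome-wide profiling panel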
[21] = target: Activin receptor type-1 (Homo sapiens, UniProt Q04771); assay: Navigating the Kinome. Panel member name: ACVR1; type: functional
[22] = target: Mitogen-activated protein kinase 8 (Homo sapiens, UniProt P45983); type: functional;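 also: value comes from one member of a kinome-wide kinase profiling panel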
[23] = target: Serine/threonine-protein kinase pim-1 (Homo sapiens, UniProt P11309); type: functional
Chain of Serine/threonine-protein kinase pim-1 (P11309 whole entry): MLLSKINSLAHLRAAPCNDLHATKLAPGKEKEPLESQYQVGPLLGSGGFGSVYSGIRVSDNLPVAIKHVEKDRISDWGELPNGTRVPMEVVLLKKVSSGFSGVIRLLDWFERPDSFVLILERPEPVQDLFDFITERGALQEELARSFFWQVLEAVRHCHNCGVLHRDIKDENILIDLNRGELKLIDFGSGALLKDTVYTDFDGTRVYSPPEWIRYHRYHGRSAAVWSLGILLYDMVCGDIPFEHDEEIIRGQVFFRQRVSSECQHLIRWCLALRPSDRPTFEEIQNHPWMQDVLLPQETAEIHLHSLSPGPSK

[24] = target: Aurora kinase A (Homo sapiens, UniProt O14965); type: functional;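 also: value from the Navigating the Kinome kinase panel profiling, panel entry STK6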
Chain of Aurora kinase A (O14965 whole entry): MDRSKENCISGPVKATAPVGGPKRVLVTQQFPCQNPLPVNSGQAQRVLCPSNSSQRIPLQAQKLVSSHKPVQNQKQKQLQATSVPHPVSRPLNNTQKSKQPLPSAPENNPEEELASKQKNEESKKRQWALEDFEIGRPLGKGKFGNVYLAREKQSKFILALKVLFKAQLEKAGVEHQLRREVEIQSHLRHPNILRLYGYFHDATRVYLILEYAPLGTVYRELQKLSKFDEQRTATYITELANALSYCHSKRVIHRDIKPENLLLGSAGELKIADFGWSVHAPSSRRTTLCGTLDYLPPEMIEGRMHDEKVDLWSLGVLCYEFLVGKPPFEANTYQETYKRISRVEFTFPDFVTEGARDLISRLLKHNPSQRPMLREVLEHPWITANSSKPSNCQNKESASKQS

[25] = target: Serine/threonine-protein kinase PAK 4 (Homo sapiens, UniProt O96013); type: functional;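 also: value obtained within a kinome profiling panel in which PAK4 was one of the panel members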
[26] = target: Fibroblast growth factor receptor 1 (Homo sapiens, UniProt P11362); type: functional
[27] = target: Casein kinase I isoform alpha (Homo sapiens, UniProt P48729); type: functional
[28] = target: Tyrosine-protein kinase JAK3 (Homo sapiens, UniProt P52333); type: functional
[29] = target: Mitogen-activated protein kinase 9 (Homo sapiens, UniProt P45984); type: functional;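 also: value from a kinome panel profiling assay, MAPK9 panel entry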
[30] = target: LIM domain kinase 1 (Homo sapiens, UniProt P53667); assay: Navigating the Kinome. Panel member name: LIMK1; type: functional
[31] = target: Serine/threonine-protein kinase TAO1 (Homo sapiens, UniProt Q7L7X3); type: functional
[32] = target: Glycogen synthase kinase-3 alpha (Homo sapiens, UniProt P49840); type: functional;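 also: GSK3A result taken from a broad kinome-wide kinase panel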
[33] = target: Mitogen-activated protein kinase kinase kinase kinase 2 (Homo sapiens, UniProt Q12851); type: functional;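 also: measured as one member of a kinome-wide kinase panel, with MAP4K2 as the panel entry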
[34] = target: Activated CDC42 kinase 1 (Homo sapiens, UniProt Q07912); assay: Navigating the Kinome. Panel member name: ACK1; type: functional
[35] = target: Serine/threonine-protein kinase Chk1 (Homo sapiens, UniProt O14757); type: functional;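 also: measured as one member of a kinome-wide kinase profiling panel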
[36] = target: Tyrosine-protein kinase ABL1 (Homo sapiens, UniProt P00519); type: functional
[37] = target: Vascular endothelial growth factor receptor 2 (Homo sapiens, UniProt P35968); type: functional
[38] = target: Cyclin-dependent kinase 5 (Homo sapiens, UniProt Q00535); type: functional;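 also: CDK5 measured as one member of a kinase profiling panel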
[39] = target: Insulin-like growth factor 1 receptor (Homo sapiens, UniProt P08069); assay: Navigating the Kinome. Panel member name: IGF1R; type: functional
[40] = target: Dual specificity tyrosine-phosphorylation-regulated kinase 1B (Homo sapiens, UniProt Q9Y463); assay: Navigating the Kinome. Panel member name: DYRK1B; type: functional
[41] = target: cAMP-dependent protein kinase catalytic subunit PRKX (Homo sapiens, UniProt P51817); type: functional
[42] = target: Focal adhesion kinase 1 (Homo sapiens, UniProt Q05397); type: functional;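 also: measured as one member of a kinome panel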
[43] = target: Platelet-derived growth factor receptor alpha (Homo sapiens, UniProt P16234); assay: Navigating the Kinome. Panel member name: PDGFRA; type: functional
[44] = target: Leucine-rich repeat serine/threonine-protein kinase 2 (Homo sapiens, UniProt Q5S007); type: functional;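 also: value from a broad kinome-wide panel profiling study in which LRRK2 was one of the kinases tested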
Chain of Leucine-rich repeat serine/threonine-protein kinase 2 (Q5S007 whole entry): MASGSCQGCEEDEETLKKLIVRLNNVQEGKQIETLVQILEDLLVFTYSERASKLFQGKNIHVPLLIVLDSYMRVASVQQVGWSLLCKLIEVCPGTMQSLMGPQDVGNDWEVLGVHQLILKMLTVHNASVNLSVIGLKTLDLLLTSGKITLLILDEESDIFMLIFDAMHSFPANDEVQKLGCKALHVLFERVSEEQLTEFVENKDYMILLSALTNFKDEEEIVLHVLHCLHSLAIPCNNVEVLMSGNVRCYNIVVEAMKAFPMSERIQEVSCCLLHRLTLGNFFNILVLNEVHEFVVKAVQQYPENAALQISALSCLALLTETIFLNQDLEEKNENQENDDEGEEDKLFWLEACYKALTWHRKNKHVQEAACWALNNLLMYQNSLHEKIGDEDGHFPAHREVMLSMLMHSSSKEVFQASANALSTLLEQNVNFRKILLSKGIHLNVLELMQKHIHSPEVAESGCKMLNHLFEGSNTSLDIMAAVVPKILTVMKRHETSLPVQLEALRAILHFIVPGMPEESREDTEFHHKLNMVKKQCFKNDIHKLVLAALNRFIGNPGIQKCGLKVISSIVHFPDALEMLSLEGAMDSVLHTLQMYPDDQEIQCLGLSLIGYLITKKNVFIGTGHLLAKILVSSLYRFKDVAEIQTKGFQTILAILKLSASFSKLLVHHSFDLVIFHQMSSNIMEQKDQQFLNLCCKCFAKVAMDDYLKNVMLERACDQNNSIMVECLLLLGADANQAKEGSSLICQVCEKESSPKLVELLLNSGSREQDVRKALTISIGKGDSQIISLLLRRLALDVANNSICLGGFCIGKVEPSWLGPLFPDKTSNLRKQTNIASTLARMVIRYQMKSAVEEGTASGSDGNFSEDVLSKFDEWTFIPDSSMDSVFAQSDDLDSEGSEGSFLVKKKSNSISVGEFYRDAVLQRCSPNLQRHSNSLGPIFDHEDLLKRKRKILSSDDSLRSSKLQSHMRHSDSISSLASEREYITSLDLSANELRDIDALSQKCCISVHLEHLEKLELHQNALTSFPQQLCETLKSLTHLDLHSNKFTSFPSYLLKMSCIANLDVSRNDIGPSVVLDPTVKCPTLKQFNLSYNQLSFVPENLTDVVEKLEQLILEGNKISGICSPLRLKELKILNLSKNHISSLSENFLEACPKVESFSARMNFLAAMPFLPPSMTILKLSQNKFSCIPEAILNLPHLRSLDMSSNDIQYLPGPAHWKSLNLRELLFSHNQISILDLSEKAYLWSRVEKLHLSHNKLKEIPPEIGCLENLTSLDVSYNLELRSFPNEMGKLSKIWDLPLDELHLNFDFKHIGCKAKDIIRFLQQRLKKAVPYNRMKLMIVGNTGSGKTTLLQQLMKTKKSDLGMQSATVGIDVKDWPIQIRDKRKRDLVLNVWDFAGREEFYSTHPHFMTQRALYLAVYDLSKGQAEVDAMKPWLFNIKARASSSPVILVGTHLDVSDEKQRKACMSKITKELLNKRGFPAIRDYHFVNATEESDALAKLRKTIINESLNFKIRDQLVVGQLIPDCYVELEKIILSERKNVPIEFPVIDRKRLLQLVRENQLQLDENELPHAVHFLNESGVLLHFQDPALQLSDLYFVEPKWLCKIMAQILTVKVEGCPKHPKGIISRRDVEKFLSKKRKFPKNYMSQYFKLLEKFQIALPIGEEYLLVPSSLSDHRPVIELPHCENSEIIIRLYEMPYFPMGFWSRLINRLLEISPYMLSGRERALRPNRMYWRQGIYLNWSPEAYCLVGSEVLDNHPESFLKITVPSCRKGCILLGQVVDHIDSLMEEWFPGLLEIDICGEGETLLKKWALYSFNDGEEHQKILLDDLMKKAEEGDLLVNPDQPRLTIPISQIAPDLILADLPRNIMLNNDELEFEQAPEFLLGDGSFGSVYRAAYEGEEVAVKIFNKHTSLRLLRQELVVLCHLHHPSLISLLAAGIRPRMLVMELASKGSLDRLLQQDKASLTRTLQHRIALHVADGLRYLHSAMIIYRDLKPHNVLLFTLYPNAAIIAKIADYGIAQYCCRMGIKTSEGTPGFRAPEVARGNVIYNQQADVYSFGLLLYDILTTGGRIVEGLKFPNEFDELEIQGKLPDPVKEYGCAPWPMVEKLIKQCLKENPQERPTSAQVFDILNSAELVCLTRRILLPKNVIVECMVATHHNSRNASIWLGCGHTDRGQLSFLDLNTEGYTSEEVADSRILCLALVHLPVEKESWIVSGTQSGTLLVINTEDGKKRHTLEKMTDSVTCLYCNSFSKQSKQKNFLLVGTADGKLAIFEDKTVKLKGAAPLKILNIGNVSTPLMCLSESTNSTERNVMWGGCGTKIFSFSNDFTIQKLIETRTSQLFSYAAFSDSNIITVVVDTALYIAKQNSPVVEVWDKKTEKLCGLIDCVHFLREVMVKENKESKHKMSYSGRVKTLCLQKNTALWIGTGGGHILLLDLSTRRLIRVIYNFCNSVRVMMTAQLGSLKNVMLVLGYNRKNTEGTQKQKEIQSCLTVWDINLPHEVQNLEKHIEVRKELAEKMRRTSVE

[45] = target: Aurora kinase B (Homo sapiens, UniProt Q96GD4); type: functional
[46] = target: Rho-associated protein kinase 1 (Homo sapiens, UniProt Q13464); type: functional;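 also: measured within a broad kinome-wide panel profiling many kinases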
[47] = target: Tyrosine-protein kinase Fyn (Homo sapiens, UniProt P06241); type: functional
[48] = target: Cyclin-dependent kinase 8 (Homo sapiens, UniProt P49336); assay: Navigating the Kinome. Panel member name: CDK8; type: functional
Chain of Cyclin-dependent kinase 8 (P49336 whole entry): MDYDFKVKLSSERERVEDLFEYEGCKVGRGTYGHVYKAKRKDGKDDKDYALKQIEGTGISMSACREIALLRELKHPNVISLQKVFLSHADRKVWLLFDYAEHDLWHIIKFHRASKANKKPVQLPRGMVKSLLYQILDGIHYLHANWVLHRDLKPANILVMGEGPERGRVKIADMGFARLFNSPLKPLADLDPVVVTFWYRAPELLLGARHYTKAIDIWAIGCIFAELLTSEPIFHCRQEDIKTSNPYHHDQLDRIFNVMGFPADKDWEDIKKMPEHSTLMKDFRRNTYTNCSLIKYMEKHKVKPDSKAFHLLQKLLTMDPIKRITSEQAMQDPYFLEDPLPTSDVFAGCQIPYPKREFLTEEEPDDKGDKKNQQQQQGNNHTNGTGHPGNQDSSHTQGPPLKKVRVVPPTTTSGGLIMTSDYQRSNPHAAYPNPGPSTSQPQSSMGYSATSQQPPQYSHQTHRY

[49] = target: Cyclin-dependent kinase 7 (Homo sapiens, UniProt P50613); type: functional;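 also: value comes from a kinome-wide kinase profiling panel in which CDK7 is one member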
[50] = target: Vascular endothelial growth factor receptor 1 (Homo sapiens, UniProt P17948); type: functional;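 also: measured within a kinome-wide profiling panel, FLT1 as the panel member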
[51] = target: Glycogen synthase kinase-3 beta (Homo sapiens, UniProt P49841); type: functional;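 also: value comes from a broad kinome profiling panel, with GSK3B as the panel member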
[52] = target: Cyclin-dependent kinase 9 (Homo sapiens, UniProt P50750); type: functional;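 also: value from the CDK9 entry of a kinome-spanning kinase panel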
[53] = target: BDNF/NT-3 growth factors receptor (Homo sapiens, UniProt Q16620); type: functional;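 also: NTRK2 measured as one member of a broad kinome-wide kinase profiling panel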
[54] = target: cAMP-dependent protein kinase catalytic subunit alpha (Homo sapiens, UniProt P17612); type: functional
[55] = target: Dual specificity protein kinase CLK4 (Homo sapiens, UniProt Q9HAZ1); type: functional
Chain of Dual specificity protein kinase CLK4 (Q9HAZ1 whole entry): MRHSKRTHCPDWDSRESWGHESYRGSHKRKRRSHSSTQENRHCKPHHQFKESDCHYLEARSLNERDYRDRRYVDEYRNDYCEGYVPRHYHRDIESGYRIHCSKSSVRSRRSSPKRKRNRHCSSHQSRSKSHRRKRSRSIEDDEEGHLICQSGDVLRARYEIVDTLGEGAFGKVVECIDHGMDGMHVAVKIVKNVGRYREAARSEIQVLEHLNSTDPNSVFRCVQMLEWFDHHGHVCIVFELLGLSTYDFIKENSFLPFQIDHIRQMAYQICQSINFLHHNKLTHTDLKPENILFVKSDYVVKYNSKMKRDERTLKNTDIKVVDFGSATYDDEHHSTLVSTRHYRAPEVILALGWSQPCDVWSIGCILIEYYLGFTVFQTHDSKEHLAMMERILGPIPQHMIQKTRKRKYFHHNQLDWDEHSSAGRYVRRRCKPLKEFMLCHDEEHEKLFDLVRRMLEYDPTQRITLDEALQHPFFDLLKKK

[56] = target: Mitogen-activated protein kinase kinase kinase kinase 4 (Homo sapiens, UniProt O95819); type: functional
[57] = target: Macrophage-stimulating protein receptor (Homo sapiens, UniProt Q04912); assay: Navigating the Kinome. Panel member name: MST1R; type: functional
[58] = target: Macrophage colony-stimulating factor 1 receptor (Homo sapiens, UniProt P07333); type: functional;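 also: value comes from the Navigating the Kinome screening panel, CSF1R member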
[59] = target: Dual specificity mitogen-activated protein kinase kinase 2 (Homo sapiens, UniProt P36507); assay: Navigating the Kinome. Panel member name: MAP2K2; type: functional
[60] = target: Dual specificity tyrosine-phosphorylation-regulated kinase 1A (Homo sapiens, UniProt Q13627); type: functional;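 also: measured against DYRK1A as one member of a broad kinome profiling panel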
[61] = target: Inhibitor of nuclear factor kappa-B kinase subunit epsilon (Homo sapiens, UniProt Q14164); assay: Navigating the Kinome. Panel member name: IKBKE; type: functional
[62] = target: Calcium/calmodulin-dependent protein kinase type II subunit alpha (Homo sapiens, UniProt Q9UQM7); assay: Navigating the Kinome. Panel member name: CAMK2A; type: functional
[63] = target: Leukocyte tyrosine kinase receptor (Homo sapiens, UniProt P29376); assay: Navigating the Kinome. Panel member name: LTK; type: functional
[64] = target: Casein kinase I isoform delta (Homo sapiens, UniProt P48730); type: functional;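 also: measured as one member (CSNK1D) of a kinome panel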
[65] = target: Platelet-derived growth factor receptor beta (Homo sapiens, UniProt P09619); type: functional;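 also: value comes from a kinome panel, with PDGFRB tested as one panel member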
[66] = target: Cyclin-dependent kinase 19 (Homo sapiens, UniProt Q9BWU1); assay: Navigating the Kinome. Panel member name: CDC2L6; type: functional
[67] = target: Mitogen-activated protein kinase 14 (Homo sapiens, UniProt Q16539); type: functional;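 also: part of a kinome-wide panel, MAPK14 entry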
[68] = target: DNA dC->dU-editing enzyme APOBEC-3G (Homo sapiens, UniProt Q9HC16); assay: inhibition of APOBEC3G ssDNA deamination – biochemical, fluorescence, single-stranded DNA substrate, SAR follow-up (AID 602136); type: functional; conditions: read-out: IC50_Mean
[69] = target: DNA dC->dU-editing enzyme APOBEC-3A (Homo sapiens, UniProt P31941); assay: SAR analysis of small molecule inhibitors of APOBEC3A DNA Deaminase via a fluorescence-based single-stranded DNA deaminase assay.; type: functional; conditions: read-out: IC50_Mean

CCCCCc1nnc(NC(=O)C2CCCO2)s1 (stereo unspecified)
inactive: EC50 [1] > 54.7 µM | EC50 [2] > 54.7 µM | IC50 [3] > 89.1 µM | EC50 [4] > 54.7 µM

COC1/C=C/C=C(\C)Cc2cc(O)c(Cl)c(c2)N(C)C(=O)CC(OC(=O)C(C)C)C2(C)OC2C(C)C2CC1(O)NC(=O)O2 (stereo unspecified)
active: CC50 [5] < 0.05 µM | AC50 [6] 9.59 µM
inactive: EC50 [7] > 59.7 µM | EC50 [8] > 59.7 µM

Cc1n[nH]c2ccc(-c3cccnc3)cc12
active: Ki [9] 0.126 µM | Ki [10] 0.0631 µM | Ki [11] 10 µM | Ki [12] 7.94 µM | Ki [13] 39.8 µM | Ki [14] 20 µM | Ki [15] 12.6 µM | Ki [16] 39.8 µM | Ki [17] 79.4 µM | Ki [18] 2.51 µM | Ki [19] 63.1 µM | Ki [20] 2 µM | Ki [21] 3.98 µM | Ki [22] 5.01 µM | Ki [23] 7.94 µM | Ki [24] 15.8 µM | Ki [25] 79.4 µM | Ki [26] 50.1 µM | Ki [27] 7.94 µM | Ki [28] 63.1 µM | Ki [29] 20 µM | Ki [30] 79.4 µM | Ki [31] 50.1 µM | Ki [32] 3.98 µM | Ki [33] 3.98 µM | Ki [34] 50.1 µM | Ki [35] 63.1 µM | Ki [36] 25.1 µM | Ki [37] 6.31 µM | Ki [38] 0.126 µM | Ki [39] 39.8 µM | Ki [40] 0.0126 µM | Ki [41] 6.31 µM | Ki [42] 25.1 µM | Ki [43] 31.6 µM | Ki [44] 0.398 µM | Ki [45] 10 µM | Ki [46] 0.251 µM | Ki [47] 79.4 µM | Ki [48] 0.0251 µM | Ki [49] 7.94 µM | Ki [50] 31.6 µM | Ki [51] 3.98 µM | Ki [52] 0.794 µM | Ki [53] 79.4 µM | Ki [54] 2.51 µM | Ki [55] 0.002 µM | Ki [56] 2.51 µM | Ki [57] 12.6 µM | Ki [58] 31.6 µM | Ki [59] 10 µM | Ki [60] 0.0398 µM | Ki [61] 20 µM | Ki [62] 12.6 µM | Ki [63] 3.16 µM

CN1CCN(Cc2ccc3c(c2)-c2n[nH]c(=O)c4cccc(c24)O3)CC1
active: Ki [23] 5.01 µM | Ki [64] 3.16 µM

C(=Cc1ccc2nccn2n1)c1ccccc1
inactive: Ki [9] > 100 µM | Ki [24] > 63.1 µM | Ki [65] > 79.4 µM | Ki [37] > 100 µM | Ki [66] > 100 µM | Ki [52] > 63.1 µM | Ki [58] > 100 µM | Ki [60] > 79.4 µM
active: Ki [44] 3.98 µM | Ki [48] 12.6 µM | Ki [54] 5.01 µM | Ki [55] 3.98 µM | Ki [56] 7.94 µM | Ki [67] 100 µM

COc1ccc2c(Cl)c(-c3nnc(SCC(=O)c4ccc(F)cc4)n3C)sc2c1
inactive: IC50 [68] > 99 µM | IC50 [69] > 99 µM
